Results published in patent US12509459B2, “Inhibitors of NLRP3 inflammasome” (BioAge Labs, Inc., priority 2024, dated 2025).

These compounds were tested against NLRP3 (Homo sapiens, UniProt Q96P20) (assay: THP-1 cell-based NLRP3 activation assay). Conditions: PMA-differentiated THP-1 cells, LPS 100 ng/mL then 10 μM nigericin.
Design: endogenous in cells; host or cells: THP-1 cells (PMA-differentiated, LPS-primed, nigericin-stimulated)
Method in brief: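 After 30 min compound preincubation, inflammasome activation was triggered with 10 μM nigericin (1 h) in LPS-primed (100 ng/mL, 3 h) THP-1 cells differentiated with PMA at 20 nM/24 h or 500 nM/3 h. CellTiter-Glo measured residual cell viability.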

NLRP3, sequence (Q96P20 whole entry): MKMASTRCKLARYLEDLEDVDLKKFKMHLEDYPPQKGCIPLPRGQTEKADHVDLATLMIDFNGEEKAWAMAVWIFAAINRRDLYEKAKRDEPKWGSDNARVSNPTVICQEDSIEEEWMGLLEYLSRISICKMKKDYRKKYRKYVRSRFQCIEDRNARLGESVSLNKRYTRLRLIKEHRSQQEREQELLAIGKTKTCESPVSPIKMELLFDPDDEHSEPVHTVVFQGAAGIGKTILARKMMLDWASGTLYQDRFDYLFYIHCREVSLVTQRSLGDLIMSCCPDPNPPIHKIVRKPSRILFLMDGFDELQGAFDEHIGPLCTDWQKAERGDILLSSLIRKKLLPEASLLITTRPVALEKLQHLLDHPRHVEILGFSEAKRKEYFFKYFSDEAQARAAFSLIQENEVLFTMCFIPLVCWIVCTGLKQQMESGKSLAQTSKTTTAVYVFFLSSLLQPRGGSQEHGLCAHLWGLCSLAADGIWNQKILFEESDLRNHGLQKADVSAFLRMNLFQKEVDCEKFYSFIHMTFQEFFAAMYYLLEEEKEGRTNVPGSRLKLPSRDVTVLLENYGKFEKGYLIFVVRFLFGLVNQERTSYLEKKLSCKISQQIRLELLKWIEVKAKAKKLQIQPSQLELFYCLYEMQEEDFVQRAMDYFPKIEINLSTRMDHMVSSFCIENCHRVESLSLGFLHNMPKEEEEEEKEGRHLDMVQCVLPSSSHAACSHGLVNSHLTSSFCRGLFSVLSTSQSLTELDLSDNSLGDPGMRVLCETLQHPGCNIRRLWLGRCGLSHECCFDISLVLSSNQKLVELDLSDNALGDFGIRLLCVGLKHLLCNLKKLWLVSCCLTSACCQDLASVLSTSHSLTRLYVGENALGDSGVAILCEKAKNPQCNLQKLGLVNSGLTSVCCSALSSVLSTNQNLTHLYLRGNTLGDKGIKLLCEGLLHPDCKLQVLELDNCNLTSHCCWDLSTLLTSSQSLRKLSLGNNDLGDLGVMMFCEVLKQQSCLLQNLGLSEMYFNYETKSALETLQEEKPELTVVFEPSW

| IC50 | Compound |
| --- | --- |
| < 100 nM | C=CC(=O)NCC[C@H](c1cncc2cn[nH]c12)N(C)C(=O)c1ccc(-c2cccc(F)c2)c(OCC)c1 [Compound 080] |
| < 100 nM | CCOc1cc(C(=O)N(C)[C@H](CCN2CCC2)c2cccc3cn[nH]c23)ccc1-c1cccc(F)c1 [Compound 217] |
| < 100 nM | CCOc1cc(C(=O)N(Cc2cncc3cn[nH]c23)C2CC(NC)C2)ccc1-c1cccc(Cl)c1 (stereo not shown) [Compound 236] |
| < 100 nM | CCOc1cc(C(=O)N(Cc2cncc3cn[nH]c23)[C@H]2C[C@@H](NC)C2)ccc1-c1cccc(Cl)c1 [Compound 238] |
| < 100 nM | CCOc1cc(C(=O)N(CCN2C[C@@H](F)[C@H](F)C2)Cc2cncc3cn[nH]c23)ccc1-c1cccc(F)c1 [Compound 107] |
| < 100 nM | CCOc1cc(C(=O)N(C)[C@H](CCN2CCC2)c2cccc3cn[nH]c23)ccc1-c1cccc(Cl)c1 [Compound 218] |
| < 100 nM | CCOc1cc(C(=O)N(C)[C@H](CC[N+](C)(C)[O-])c2cccc3cn[nH]c23)ccc1-c1cccc(Cl)c1 [Compound 206] |
| < 100 nM | CCOc1cc(C(=O)N(C)[C@@H](c2cnc(C)c3cn[nH]c23)C2CN(C)C2)ccc1-c1cccc(F)c1 [Compound 071] |
| < 100 nM | CCOc1cc(C(=O)N(C)[C@@H](c2cncc3cn[nH]c23)C2CN(C)C2)ccc1-c1ccccc1 [Compound 178] |
| < 100 nM | CCOc1cc(C(=O)N(C)[C@H](c2cccc3cn[nH]c23)C2CN(C)C2)ccc1-c1cccc(Cl)c1 [Compound 283] |
| < 100 nM | CCOc1cc(C(=O)N(Cc2cncc3cn[nH]c23)[C@H]2C[C@@H](CN(C)C)C2)ccc1-c1cccc(F)c1 [Compound 249] |
| < 100 nM | CCOc1cc(C(=O)N(C)[C@H](CCN)c2cncc3cn[nH]c23)ccc1-c1cccc(F)c1 [Compound 038] |
| < 100 nM | CN(C)CC[C@H](c1cncc2cn[nH]c12)N(C)C(=O)c1ccc(-c2cccc(Cl)c2)c(OC2CC2)c1 [Compound 102] |
| < 100 nM | CCOc1cc(C(=O)N(C)[C@H](CCN(C)C)c2cccc3cn[nH]c23)ccc1-c1ccccc1 [Compound 194] |
| < 100 nM | CCOc1cc(C(=O)N(C)[C@H](c2cncc3cn[nH]c23)C2CNC2)ccc1-c1ccccc1 [Compound 151] |
| < 100 nM | CCOc1cc(C(=O)N(C)[C@H](c2cncc3cn[nH]c23)C2CN(C)C2)ccc1-c1ccccc1 [Compound 133] |
| < 100 nM | CCOc1cc(C(=O)N(C)[C@H](CC[N+](C)(C)[O-])c2cccc3cn[nH]c23)ccc1-c1cccc(F)c1 [Compound 227] |
| < 100 nM | CCOc1cc(C(=O)N(C)[C@H](CCN(C)C)c2cncc3cn[nH]c23)ccc1-c1cc(Cl)cc(Cl)c1 [Compound 090] |
| 100 to 500 nM | CCOc1cc(C(=O)N(C)C(CN(C)CC)c2cccc3cn[nH]c23)ccc1-c1cccc(F)c1 (stereo not shown) [Compound 258] |
| < 100 nM | CCOc1cc(C(=O)N(C)[C@H](c2cnc(C)c3cn[nH]c23)C2CNC2)ccc1-c1cccc(F)c1 [Compound 072] |
| < 100 nM | CCOc1cc(C(=O)N(C)[C@H](CO)c2cnc(C)c3cn[nH]c23)ccc1-c1cc(F)cc(F)c1 [Compound 018] |
| < 100 nM | CCOc1cc(C(=O)N(C)[C@H](CCNCCF)c2cncc3cn[nH]c23)ccc1-c1cccc(F)c1 [Compound 063] |
| < 100 nM | CCOc1cc(C(=O)N(C)[C@H](CCN(C)CCF)c2cncc3cn[nH]c23)ccc1-c1ccccc1 [Compound 155] |

| IC50 | Compound |
| --- | --- |
| 100 to 500 nM | CCOc1cc(C(=O)N(Cc2cncc3cn[nH]c23)[C@H]2CC[C@H]2N)ccc1-c1cccc(F)c1 [Compound 300] |
| < 100 nM | Cc1ncc([C@@H](CO)N(C)C(=O)c2ccc(-c3cccc(F)c3)c(OC3CC3)c2)c2[nH]ncc12 [Compound 022] |
| < 100 nM | CCOc1cc(C(=O)N(C)[C@H](CCN2CCC2)c2cncc3cn[nH]c23)ccc1-c1cccc(F)c1 [Compound 077] |
| 500 to 1000 nM | CCOc1cc(C(=O)N(Cc2cncc3cn[nH]c23)[C@H]2CC[C@@H]2N)ccc1-c1cccc(Cl)c1 [Compound 287] |
| 100 to 500 nM | CCOc1cc(C(=O)N(Cc2cncc3cn[nH]c23)[C@H]2CC[C@H]2N)ccc1-c1cccc(Cl)c1 [Compound 295] |
| < 100 nM | CCOc1cc(C(=O)N(C)[C@H](CC[N+](C)(C)[O-])c2cncc3cn[nH]c23)ccc1-c1cccc(C)c1 [Compound 164] |
| < 100 nM | CCOc1cc(C(=O)N(C)[C@H](CO)c2cnc(CO)c3cn[nH]c23)ccc1-c1cccc(Cl)c1 [Compound 036] |
| < 100 nM | CCOc1cc(C(=O)N(CCN2CCCC(F)(F)C2)Cc2cncc3cn[nH]c23)ccc1-c1cccc(F)c1 [Compound 113] |
| < 100 nM | CCOc1cc(C(=O)N(Cc2cnc(C)c3cn[nH]c23)CC(C)(C)O)ccc1-c1cccc(F)c1 [Compound 053] |
| < 100 nM | CCOc1cc(C(=O)N(CCN)Cc2cncc3cn[nH]c23)ccc1-c1cccc(F)c1 [Compound 055] |
| < 100 nM | CCOc1cc(C(=O)N(Cc2ccc(C)c3cn[nH]c23)[C@H]2C[C@@H](N(C)C)C2)ccc1-c1cccc(Cl)c1 [Compound 285] |
| < 100 nM | CCOc1cc(CN(CCN(CC)CC)Cc2cncc3cn[nH]c23)ccc1-c1cccc(F)c1 [Compound 120] |
| < 100 nM | CCOc1cc(C(=O)N(Cc2cncc3cn[nH]c23)[C@H]2C[C@@H](N)C2)ccc1-c1cccc(C#N)c1 [Compound 289] |
| < 100 nM | CCOc1cc(C(=O)N(CCO)Cc2cnc(NC)c3cn[nH]c23)ccc1-c1cccc(F)c1 [Compound 048] |
| < 100 nM | CCOc1cc(C(=O)N(C)[C@H](CCN(C)C)c2cncc3cn[nH]c23)ccc1C(C)CC (stereo partly shown) [Compound 161] |
| < 100 nM | CCOc1cc(C(=O)N(C)[C@H](CCN(C)C)c2cnc(C)c3cn[nH]c23)ccc1-c1cccc(F)c1 [Compound 075] |
| 100 to 500 nM | CCOc1cc(C(=O)N(C)[C@@H](CCN(C)C)c2ccc(C)c3cn[nH]c23)ccc1-c1cccc(F)c1 [Compound 201] |
| < 100 nM | CCOc1cc(C(=O)N(Cc2cncc3cn[nH]c23)[C@H]2C[C@@H](N(C)C)C2)ccc1-c1cccc(Cl)c1 [Compound 253] |
| < 100 nM | CCOc1cc(C(=O)N(C)[C@H](c2cncc3cn[nH]c23)C2CNC2)ccc1-c1cccc(Cl)c1 [Compound 182] |
| < 100 nM | CCOc1cc(C(=O)N(C)[C@H](CCNC)c2cncc3cn[nH]c23)ccc1-c1cccc(Cl)c1 [Compound 228] |
| < 100 nM | CCOc1cc(C(=O)N(C)[C@H](CCN(C)C)c2cncc3cn[nH]c23)ccc1C1CCC1 [Compound 156] |
| < 100 nM | CCNCC[C@H](c1cncc2cn[nH]c12)N(C)C(=O)c1ccc(-c2cccc(F)c2)c(OCC)c1 [Compound 167] |
| < 100 nM | CCOc1cc(C(=O)N(C)[C@H](CCN(C)C)c2cnc(C)c3cn[nH]c23)ccc1-c1ccccc1 [Compound 074] |

| IC50 | Compound |
| --- | --- |
| 100 to 500 nM | CCOc1cc(C(=O)N(C)[C@H](CN(C)C)c2cccc3cn[nH]c23)ccc1-c1cccc(Cl)c1 [Compound 220] |
| < 100 nM | CCOc1cc(C(=O)N(C)[C@H](CCN(C)C)c2cnc(CO)c3cn[nH]c23)ccc1-c1cccc(F)c1 [Compound 099] |
| < 100 nM | CCOc1cc(C(=O)N(CCN2C[C@H](F)C[C@H](F)C2)Cc2cncc3cn[nH]c23)ccc1-c1cccc(F)c1 [Compound 106] |
| < 100 nM | CCOc1cc(C(=O)N(C)[C@H](CCN(C)CCF)c2cncc3cn[nH]c23)ccc1-c1cccc(Cl)c1 [Compound 067] |
| < 100 nM | CCOc1cc(C(=O)N(C)[C@H](c2cncc3cn[nH]c23)C2CN(CC)C2)ccc1-c1cccc(C)c1 [Compound 171] |
| 100 to 500 nM | CCOc1cc(C(=O)N(C)[C@H](CCN(C)C)c2ccc(C)c3cn[nH]c23)ccc1-c1cccc(F)c1 [Compound 200] |
| < 100 nM | CCOc1cc(C(=O)N(C)[C@@H](CN2CCCC2)c2cccc3cn[nH]c23)ccc1-c1cccc(F)c1 [Compound 223] |
| < 100 nM | CCOc1cc(C(=O)N(C)[C@H](CCN(C)C)c2cncc3cn[nH]c23)ccc1-c1cccc(C)c1 [Compound 091] |
| < 100 nM | CCOc1cc(C(=O)N(CC(C)(C)O)C(C)c2cnc(C)c3cn[nH]c23)ccc1-c1cccc(F)c1 (stereo not shown) [Compound 062] |
| < 100 nM | CCOc1cc(C(=O)N(C)[C@H](CO)c2cncc3cn[nH]c23)ccc1-c1cc(F)cc(F)c1 [Compound 002] |
| < 100 nM | CCOc1cc(C(=O)N(C)[C@H](CCN2CC(F)(F)C2)c2cncc3cn[nH]c23)ccc1-c1cccc(F)c1 [Compound 101] |
| 500 to 1000 nM | CCOc1cc(C(=O)N(C)[C@H](CN2CCC2)c2cncc3cn[nH]c23)ccc1-c1cccc(F)c1 [Compound 123] |
| < 100 nM | CCOc1cc(C(=O)N(Cc2cnc(C)c3cn[nH]c23)[C@H]2C[C@@H](NC)C2)ccc1-c1cccc(Cl)c1 [Compound 277] |
| < 100 nM | CCOc1cc(C(=O)N(C)C(CN(CC)CC)c2cccc3cn[nH]c23)ccc1-c1cccc(F)c1 (stereo not shown) [Compound 261] |
| < 100 nM | CCOc1cc(C(=O)N(C)[C@@H](c2cncc3cn[nH]c23)C2CNC2)ccc1-c1cccc(C#N)c1 [Compound 141] |
| < 100 nM | CCOc1cc(C(=O)N(CCN2CCCCC2)Cc2cncc3cn[nH]c23)ccc1-c1ccccc1 [Compound 112] |
| < 100 nM | Cc1ccc([C@H](CCN(C)C)N(C)C(=O)c2ccc(-c3cccc(F)c3)c(OC3CC3)c2)c2[nH]ncc12 [Compound 203] |
| < 100 nM | CN(C)CC[C@H](c1cccc2cn[nH]c12)N(C)C(=O)c1ccc(-c2ccccc2)c(OC2CC2)c1 [Compound 199] |
| < 100 nM | CCOc1cc(C(=O)N(C)[C@H](CCN(C)C)c2cnc(CO)c3cn[nH]c23)ccc1-c1cccc(Cl)c1 [Compound 068] |
| < 100 nM | CCOc1cc(C(=O)N(C)[C@H](CCN(C)CCO)c2cncc3cn[nH]c23)ccc1-c1cccc(Cl)c1 [Compound 230] |
| < 100 nM | CCOc1cc(C(=O)N(C[C@@H](C)O)[C@H](C)c2cnc(C)c3cn[nH]c23)ccc1-c1cccc(F)c1 [Compound 058] |
